Experimental data published in the NIST ThermoML archive (doi:10.1016/j.jct.2019.06.017).
Where “and” joins values, the source holds several entries; their conditions need not be identical. Equal entries are not always repeated. Numbers after ± are expanded uncertainties.

Assay: Boiling temperature at pressure P
Conditions: Liquid, Ebulliometric method (Recirculating still)

Row | Compound | Boiling temperature at pressure P (2.8 kPa) [°C] | Boiling temperature at pressure P (19.8 kPa) [°C] | Boiling temperature at pressure P (69.8 kPa) [°C] | Boiling temperature at pressure P (9.8 kPa) [°C] | Boiling temperature at pressure P (29.8 kPa) [°C] | Boiling temperature at pressure P (39.8 kPa) [°C] | Boiling temperature at pressure P (49.8 kPa) [°C] | Boiling temperature at pressure P (59.8 kPa) [°C] | Boiling temperature at pressure P (79.8 kPa) [°C] | Boiling temperature at pressure P (4.8 kPa) | Boiling temperature at pressure P (89.8 kPa) [°C] | other results
1 | CCN(CC)CCCO [3-diethylamino-1-propanol] | 87.1 ± 6 | 132.2 ± 3.5 | 169.1 ± 1 |  |  |  |  |  |  |  |  | Boiling temperature at pressure P (1.8 kPa): 80.8 ± 6.5 °C; Boiling temperature at pressure P (22.3 kPa): 136.1 ± 3.1 °C; Boiling temperature at pressure P (24.8 kPa): 139.0 ± 2 °C; Boiling temperature at pressure P (34.8 kPa): 147.1 ± 1.7 °C; Boiling temperature at pressure P (44.8 kPa): 154.2 ± 1.5 °C; Boiling temperature at pressure P (54.8 kPa): 160.2 ± 1.5 °C; Boiling temperature at pressure P (64.8 kPa): 167.0 ± 1.4 °C
2 | O [water] |  | 60 ± 2.7 | 90.0 ± 0.9 | 45.2 ± 3.3 | 69.0 ± 1.8 | 75.8 ± 1.4 | 81.2 ± 1.2 | 86.0 ± 1 | 93.6 ± 0.7 |  |  | Boiling temperature at pressure P (100.1 kPa): 99.5 ± 0.7 °C
3 | CN(C)CCCO [3-dimethylamino-1-propanol] |  | 112.7 ± 2.7 | 148.6 ± 1.1 | 95.2 ± 5.9 | 123.7 ± 2.2 | 132 ± 1.7 | 138.5 ± 1.4 | 144.1 ± 1.2 | 153.2 ± 1 | 79.2 ± 7.2 °C and 79.8 ± 7 °C | 156.8 ± 0.9 | Boiling temperature at pressure P (14.8 kPa): 105.4 ± 4 °C; Boiling temperature at pressure P (99.8 kPa): 160.6 ± 0.9 °C
4 | OCCN1CCCC1 [1-(2-hydroxyethyl)pyrrolidine] | 87.5 ± 13 | 132.4 ± 3.2 | 169.5 ± 1 | 115.7 ± 4.9 | 144 ± 2.3 | 153.0 ± 1.8 | 159.5 ± 1.4 | 165.0 ± 1.2 | 173.8 ± 0.8 | 99.1 ± 8.8 °C | 176.7 ± 0.7 | 
